In ChEMBL document CHEMBL3396967, “Discovery of anthranilamides as a novel class of inhibitors of neurotropic alphavirus replication” (Bioorg Med Chem, 2015):
pIC50: −log10 of the molar value. Active and inactive are the calls of the source. The rule behind the calls is not given here.

What was measured:
[1] = Cytotoxicity against human BE(2)-C cells after 18 to 20 hrs by MTT assay; type: cell-based
[2] = target: MDR1 (ABCB1, P-glycoprotein) (Homo sapiens, UniProt P08183); assay: Inhibition of human MDR1 expressed in MDCK2 cells assessed as increase of rhodamine 123 uptake at 30 uM up to 240 mins relative to 5 uM tariquidar; type: ADME, cell-based, MDCK-II; settings: MDCK2 cells expressing human MDR1, probe rhodamine 123, read-out: Activity
[3] = Kinetic solubility of the compound in WEEV replication assay medium in presence of 10% fetal bovine serum; type: physicochemical; settings: for Kinetic_solubility: serum; for solubility kinetic: WEEV replication assay medium with 10% fetal bovine serum, read-out: Kinetic_solubility
[4] = tested on: Western equine encephalitis virus; assay: microbe, parasite or virus in culture; settings: BE(2)-C
Liver = assay: (§1) Half life in BALB/c mouse liver microsomes at 1 uM in presence of NADPH by HPLC-MS/MS method; type: ADME; settings: microsomes, 1 µM
Fort Morgan virus [5] = type: functional
Fort Morgan virus [6] = type: functional; remark: listed apart in the source
[7] = tested on: Western equine encephalitis virus; type: functional
Fort Morgan virus [8] = type: functional; remark: listed apart in the source
Fort Morgan virus [9] = type: functional; remark: listed apart in the source
[10] = tested on: Western equine encephalitis virus; type: functional; remark: listed apart in the source
Fort Morgan virus [11] = assay: Antiviral activity against Fort Morgan virus infected in HEK293 cells assessed as reduction of viral titer by plaque reduction assay relative to untreated control; type: functional, cell-based
[12] = tested on: Venezuelan equine encephalitis virus; assay: Antiviral activity against Venezuelan equine encephalitis virus TC-83 vaccine infected in HEK293 cells assessed as reduction of viral titer at 25 uM by plaque reduction assay relative to untreated control; type: functional
[13] = tested on: California encephalitis virus; assay: Antiviral activity against California encephalitis virus infected in HEK293 cells assessed as reduction of viral titer at 25 uM by plaque reduction assay relative to untreated control; type: functional
[14] = tested on: Encephalomyocarditis virus; assay: Antiviral activity against Encephalomyocarditis virus infected in HEK293 cells assessed as reduction of viral titer at 25 uM by plaque reduction assay relative to untreated control; type: functional
[15] = Inhibition of host cell cap-dependent translation in Cricetinae BSR-T7 cells assessed as suppression of pSV40-LUC activity at 0.1 to 10 uM after 20 hrs; type: functional, cell-based
BSR-T7 = assay: Inhibition of host cell cap-independent translation in Cricetinae BSR-T7 cells assessed as suppression of pT7/CITE-LUC activity at 0.1 to 10 uM after 20 hrs; type: functional, cell-based
[16] = target: ATP-dependent translocase ABCB1 (Homo sapiens, UniProt P08183); assay: Inhibition of human MDR1 expressed in MDCK2 cells assessed as increase of rhodamine 123 uptake at 5 uM up to 240 mins; type: ADME, cell-based; set-up: scale not given: the % may be the effect or the level left; settings: mdck-ii, 4 h
[17] = as §1; type: ADME; settings: BALB/c, liver microsomes

MDR1 (ABCB1, P-glycoprotein), sequence (P08183 whole entry): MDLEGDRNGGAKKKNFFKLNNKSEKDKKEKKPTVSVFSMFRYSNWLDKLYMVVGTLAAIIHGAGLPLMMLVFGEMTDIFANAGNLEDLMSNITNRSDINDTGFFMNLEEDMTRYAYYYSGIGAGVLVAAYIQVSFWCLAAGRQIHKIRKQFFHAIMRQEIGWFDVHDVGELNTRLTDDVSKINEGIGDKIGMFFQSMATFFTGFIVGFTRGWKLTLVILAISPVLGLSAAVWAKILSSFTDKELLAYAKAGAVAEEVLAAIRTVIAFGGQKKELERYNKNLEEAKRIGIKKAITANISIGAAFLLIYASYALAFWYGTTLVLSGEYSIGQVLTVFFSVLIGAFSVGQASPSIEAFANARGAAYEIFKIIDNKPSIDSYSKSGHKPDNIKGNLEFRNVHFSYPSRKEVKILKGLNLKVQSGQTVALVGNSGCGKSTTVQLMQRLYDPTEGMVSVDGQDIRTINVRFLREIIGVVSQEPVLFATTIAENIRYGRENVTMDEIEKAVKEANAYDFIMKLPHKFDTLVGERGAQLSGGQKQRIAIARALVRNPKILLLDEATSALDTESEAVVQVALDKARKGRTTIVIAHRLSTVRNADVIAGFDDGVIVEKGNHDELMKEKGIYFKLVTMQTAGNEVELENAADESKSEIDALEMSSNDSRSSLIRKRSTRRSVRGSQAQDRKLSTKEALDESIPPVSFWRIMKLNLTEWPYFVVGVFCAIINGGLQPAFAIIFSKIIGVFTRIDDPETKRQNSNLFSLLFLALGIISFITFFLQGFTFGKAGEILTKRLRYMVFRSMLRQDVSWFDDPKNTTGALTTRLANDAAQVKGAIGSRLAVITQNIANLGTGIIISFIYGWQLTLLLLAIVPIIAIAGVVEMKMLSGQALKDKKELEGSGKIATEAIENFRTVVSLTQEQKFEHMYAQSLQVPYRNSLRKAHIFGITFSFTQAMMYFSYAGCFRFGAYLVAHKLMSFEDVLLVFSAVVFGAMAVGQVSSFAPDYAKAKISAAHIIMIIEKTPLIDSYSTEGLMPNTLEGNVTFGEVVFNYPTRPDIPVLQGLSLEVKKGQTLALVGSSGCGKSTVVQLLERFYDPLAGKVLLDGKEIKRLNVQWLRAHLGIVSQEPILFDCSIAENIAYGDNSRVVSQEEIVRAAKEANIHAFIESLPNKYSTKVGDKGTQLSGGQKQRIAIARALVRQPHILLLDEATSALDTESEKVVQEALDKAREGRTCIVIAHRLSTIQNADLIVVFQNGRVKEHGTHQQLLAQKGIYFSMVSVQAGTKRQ
ATP-dependent translocase ABCB1, sequence (P08183 whole entry): as above

## O=C(c1ccc(Cl)cc1)c1ccccc1C(=O)N1CCC(C(=O)NCCc2ccncc2)CC1
[1]
  CC50: > 50 µM
[2]
  inhibition at 4 h, 30 µM: 1.8%
[3]
  Kinetic_solubility: > 250 µg/mL
[4]
  pIC50: < 4.30

## O=C(NCCc1ccncc1)C1CCN(C(=O)c2cccc3c2[nH]c2ccc(Cl)cc23)CC1
[1]
  CC50: 66.1 µM
[4]
  pIC50: 4.73

## O=C(NCCc1ccncc1)C1CCN(C(=O)c2ccccc2NCc2ccc(Cl)cc2)CC1
[1]
  CC50: 75.2 µM
[2]
  inhibition at 4 h, 30 µM: 59.6%
Liver
  t1/2: 15 min
[3]
  Kinetic_solubility: > 250 µg/mL
Fort Morgan virus [5]
  Activity: 3.2 ×10⁶ PFU/ml
Fort Morgan virus [6]
  Activity: 66.6%
[7]
  Activity: 1.6 ×10⁶ PFU/ml
Fort Morgan virus [8]
  Activity: 9.4 ×10⁶ PFU/ml
Fort Morgan virus [9]
  Activity: 73.3%
[10]
  Activity: 11.7 ×10⁶ PFU/ml
Fort Morgan virus [11]
  pIC50: 5.64
  inhibition: Dose-dependent effect
[12]
  fold change (FC): 10
[13]
  fold change (FC): 10
[14]
  fold change (FC): 10
[15]
  pIC50: 6.00
BSR-T7
  inhibition: inactive
[4]
  pIC50: 6.25

## O=C(NCCc1ccncc1)C1CCN(C(=O)[C@H]2CCCN2Cc2ccc(Cl)cc2)CC1
[1]
  CC50: > 100 µM
[4]
  pIC50: 4.27

## O=C(NCCc1ccncc1)C1CCN(C(=O)c2ccccc2NCc2ccccc2)CC1
[1]
  CC50: 92.2 µM
[2]
  inhibition at 4 h, 30 µM: 2.5%
[3]
  Kinetic_solubility: > 250 µg/mL
[4]
  pIC50: 4.72

## O=C(NCCc1ccncc1)C1CCN(C(=O)NCc2ccc(Cl)cc2)CC1
[1]
  CC50: > 100 µM
[4]
  pIC50: 4.22

## O=C(NCCc1ccncc1)C1CCN(C(=O)[C@@H]2CCCN2C(=O)c2ccc(Cl)cc2)CC1
[4]
  pIC50: < 4.00

## O=C(NCCc1ccncc1)C1CCN(C(=O)Cc2ccc(Cl)cc2)CC1
[1]
  CC50: > 100 µM
[4]
  pIC50: < 4.00

## COc1cc2c(cc1OC)CN(CCc1ccc(NC(=O)c3cc(OC)c(OC)cc3NC(=O)c3cnc4ccccc4c3)cc1)CC2
[16]
  Activity: 1123%

## O=C(NCCc1ccncc1)C1CCN(C(=O)c2ccccc2Cc2ccc(Cl)cc2)CC1
[1]
  CC50: 70.7 µM
[2]
  inhibition at 4 h, 30 µM: 22.6%
Liver
  t1/2: 3 min
[3]
  solubility kinetic: 62 µg/mL
[4]
  pIC50: 5.84

## O=C(NCCc1ccncc1)C1CCN(C(=O)c2ccccc2NCCc2ccc(Cl)cc2)CC1
[1]
  CC50: 86 µM
[2]
  inhibition at 4 h, 30 µM: 30.7%
[3]
  Kinetic_solubility: > 250 µg/mL
[4]
  pIC50: 5.46

## O=C(NCCc1ccncc1)C1CCN(C(=O)CCc2ccc(Cl)cc2)CC1
[1]
  CC50: > 100 µM
[4]
  pIC50: < 4.00

## O=C(NCCc1ccncc1)C1CCN(c2cc(=O)n(-c3ccc(Cl)cc3)c3ccccc23)CC1
[1]
  CC50: > 100 µM

## O=C(NCCc1ccncc1)C1CCN(C(=O)c2cccn2Cc2ccc(Cl)cc2)CC1
[1]
  CC50: > 100 µM
[17]
  half-life at 1 µM: 3 min
[3]
  solubility kinetic: 125 µg/mL
[4]
  pIC50: 6.17

## CN(c1ccc(Cl)cc1)c1ccccc1C(=O)N1CCC(C(=O)NCCc2ccncc2)CC1
[1]
  CC50: > 100 µM
[2]
  inhibition at 4 h, 30 µM: 3.9%
[3]
  Kinetic_solubility: > 250 µg/mL
[4]
  pIC50: 4.81

## O=C(NCCc1ccncc1)C1CCN(C(=O)c2ccccc2Oc2ccc(Cl)cc2)CC1
[1]
  CC50: 56 µM
[2]
  inhibition at 4 h, 30 µM: 9.3%
Liver
  t1/2: 18 min
[3]
  solubility kinetic: 62 µg/mL
Fort Morgan virus [5]; 25 uM
  Activity: inactive
Fort Morgan virus [6]; 25 uM
  Activity: inactive
[7]; 25 uM
  Activity: inactive
Fort Morgan virus [8]; 5 uM
  Activity: inactive
Fort Morgan virus [9]; 5 uM
  Activity: inactive
[10]; 5 uM
  Activity: inactive
[4]
  pIC50: 5.21

## O=C(NCCc1ccncc1)C1CCN(C(=O)[C@@H]2CCCN2Cc2ccc(Cl)cc2)CC1
[1]
  CC50: 91.6 µM
[4]
  pIC50: 4.87

## O=C(NCCc1ccncc1)C1CCN(C(=O)c2ccccc2Nc2ccc(Cl)cc2)CC1
[1]
  CC50: > 100 µM
[2]
  inhibition at 4 h, 30 µM: 47.7%
Liver
  t1/2: 19 min
[3]
  Kinetic_solubility: > 250 µg/mL
Fort Morgan virus [5]
  Activity: 3.7 ×10⁶ PFU/ml
Fort Morgan virus [6]
  Activity: 58.1%
[7]
  Activity: 3.2 ×10⁶ PFU/ml
Fort Morgan virus [9]
  Activity: 54.6%
[10]
  Activity: 49.2 ×10⁶ PFU/ml
Fort Morgan virus [11]
  pIC50: 5.28
  inhibition: Dose-dependent effect
[12]
  fold change (FC): 10
[13]
  fold change (FC): 10
[14]
  fold change (FC): 10
[15]
  pIC50: 5.66
BSR-T7
  inhibition: inactive
[4]
  pIC50: 5.80

## O=C(NCCc1ccncc1)C1CCN(C(=O)c2cccc3c2[nH]c2ccccc23)CC1
[1]
  CC50: > 100 µM
[4]
  pIC50: 4.23

## O=C(NCCc1ccncc1)C1CCN(C(=O)[C@H]2CCCN2C(=O)c2ccc(Cl)cc2)CC1
[1]
  CC50: > 100 µM
[4]
  pIC50: < 4.00

## O=C(NCCc1ccncc1)C1CCN(C(=O)c2cc3ccccc3n2Cc2ccc(Cl)cc2)CC1
[17]
  half-life at 1 µM: 9 min
[3]
  solubility kinetic: 31 µg/mL
Fort Morgan virus [11]
  pIC50: 6.00
[15]
  pIC50: 7.00
[4]
  pIC50: 6.28

## O=C(NCCc1ccncc1)C1CCN(c2cc(=O)n(Cc3ccc(Cl)cc3)c3ccccc23)CC1
[1]
  CC50: 34.1 µM
[4]
  pIC50: 4.96

## O=C(NCCc1ccncc1)C1CCN(C(=O)c2ccccc2Nc2ccccc2)CC1
[1]
  CC50: > 100 µM
[2]
  inhibition at 4 h, 30 µM: 10.9%
[3]
  Kinetic_solubility: > 250 µg/mL
[4]
  pIC50: 4.54
